Source: publication PMC4000412, “Novel LHRH-receptor-targeted cytolytic peptide, EP-100: first-in-human phase I study in patients with advanced LHRH-receptor-expressing solid tumors” (Cancer Chemotherapy and Pharmacology, 2014)
Peptide text beside a SMILES is read from it.

How the values were obtained:
[1] = Antidrug antibodies (anti-EP-100) ELISA in human serum; format: in vivo; settings: any dose level
Method: ADA were evaluated using an enzyme linked immunoassay validated for the detection of antibodies against EP-100 (anti-EP-100) (Icon plc, formerly Prevalere Life Sciences, LLC, Whitesboro, NY). Antibodies were produced in rabbits against the lytic peptide moiety of EP-100 (APC 338983). Antibodies against EP-100 in human serum were detected by coating 96-well microtiter plates with peptide 338983. At least two wells from each plate were coated with human IgG at 500 ng/mL as controls for the goat antihuman horseradish peroxidase detector. Rabbit anti-EP-100 polyclonal antibody was used as a positive control. The plates were washed, and a mixture of goat antirabbit HRP and goat antihuman HRP and tetramethylbenzidine peroxide substrate were added, and the color development determined in a spectrophotometer at 450 and 620 nm wavelength. The developed color was proportional to the amount of anti-EP-100 antibody in the sample. The anti-EP-100 antibodies in serum were quantified from a calibration curve prepared from the positive control and ranged from 500 to 32,000 ng/mL in 100 % human serum.

[2] = system: human cancer cell lines expressing the LHRH receptor; settings: cited from earlier work
From the text: EP-100 is a synthetic 28 amino acid consisting of the LHRH natural ligand joined to an 18 amino acid cationic α-helical lytic peptide (CLIP-71) without a linker. LHRH delivers the lytic peptide to cancer cells via specific binding to cell-surface LHRH receptors. Although EP-100’s exact mechanism of action has not yet been resolved, cancer cell membrane surface characteristics are believed to play a critical role.

[3] = ref Esperance data on file, cited from earlier work
Method: A conservative first-in-human starting dose of 0.6 mg/m^2 was chosen, based on the repeat-dose toxicity studies in dogs (which appeared to be the most sensitive species). The initial dose schedule of one 30 min infusion weekly was pre ...

[4] = system: LHRH-receptor-positive cell lines; settings: in vitro; cited from earlier work
From the text: (§1) A phase 2 clinical trial te ...

[5] = system: breast cancer model; settings: in vivo breast cancer model; ref Esperance, data on file; cited from earlier work
From the text: as §1

CC(C)C[C@H](NC(=O)CNC(=O)[C@H](Cc1ccc(O)cc1)NC(=O)[C@H](CO)NC(=O)[C@H](Cc1c[nH]c2ccccc12)NC(=O)[C@H](Cc1c[nH]cn1)NC(=O)[C@@H]1CCC(=O)N1)C(=O)N[C@@H](CCCNC(=N)N)C(=O)N1CCC[C@H]1C(=O)NCC(=O)N[C@@H](CCCCN)C(=O)N[C@@H](Cc1ccccc1)C(=O)N[C@@H](C)C(=O)N[C@@H](CCCCN)C(=O)N[C@@H](Cc1ccccc1)C(=O)N[C@@H](C)C(=O)N[C@@H](CCCCN)C(=O)N[C@@H](CCCCN)C(=O)N[C@@H](Cc1ccccc1)C(=O)N[C@@H](C)C(=O)N[C@@H](CCCCN)C(=O)N[C@@H](Cc1ccccc1)C(=O)N[C@@H](C)C(=O)N[C@@H](CCCCN)C(=O)N[C@@H](CCCCN)C(=O)N[C@@H](Cc1ccccc1)C(=O)N[C@@H](C)C(=O)N[C@@H](CCCCN)C(=O)O [EP-100] (HELM PEPTIDE1{[Glp].H.W.S.Y.G.L.R.P.G.K.F.A.K.F.A.K.K.F.A.K.F.A.K.K.F.A.K}$$$$V2.0; C-terminus assumed)
antibodies to EP-100 (ADA) [1]: not detected | release of cell-death proteases from cells ([2]; in vitro, low micromolar concentrations): released from cells within minutes | incubation time to complete cell lysis ([2]; in vitro): 1 h | in vitro activity level ([2]; various human cancer cell lines from solid tumors and hematological malignancies expressing the LHRH receptor, ref Esperance data on file, 37): sub-micromolar | highest non-severely toxic dose ([3]; repeat-dose animal studies): 2.0 mg/kg/dose | pharmacologic effect on pituitary LH and FSH ([3]; some animals, with reduction in uterine and epididymal weights): reduction in pituitary production | effect of combination with pgp substrates (doxorubicin, paclitaxel, vinorelbine, vincristine) and non-pgp substrates (cisplatinum, 5-fluorouracil) [4]: reversion of drug resistance and potentiation of toxicity | tolerability of combination EP-100 with paclitaxel [5]: well tolerated
